These are literature values, as cited in patent publication US6667408B2, “Process for preparing cyclic polyethers” (Japan Science and Technology Corporation, priority 2000, dated 2003).

As usually defined, the LD50 is the dose expected to kill half of the subjects tested.

This data set deals with mice. The settings on record: i.p.

Each structure is given as a SMILES string.

On to `C=CC/C=C\C=C/[C@H]1O[C@H]2C[C@H]3O[C@H]4CC[C@H]5O[C@H]6C[C@@]7(C)O[C@@]8(C)[C@@H](O)C[C@H](CCCO)O[C@@H]8C[C@@H]7O[C@@H]6C[C@@H]5O[C@]4(C)C[C@]3(C)O[C@@H]2C=C[C@]1(C)O` [gambierol], for which the 50% lethal dose (LD50) was 50 µg/kg.
